Experiments:
[1] = Stability in mouse liver microsomes; type: in vitro ADME; conditions: with or without NADPH, over 1 h
Description: (§1) Human and mouse liver microsomes and NADPH regenerating system solutions were purchased from Corning Life Sciences (Tewsbury, MA). Human and mouse K2EDTA-treated plasma was purchased from BioIVT (Westbury, NY). Metabolic studies in liver microsomes (0.125 mg/mL) were conducted in 1x PBS (pH 7.4), NADPH-generating system, and 10 μM RA475 in a final volume of 250 μL. An incubation mixture with or without NADPH-generating system, as well as a neat solution prepared without microsomes and NADPH-generating system was used. RA475 was added at the same concentration level into human and mouse EDTA plasma. All reactions were initiated with the addition of RA475. Incubations were performed in glass tubes maintained at 37°C in a shaker bath. At 0, 30, and 60 min, 10 μL samples were withdrawn from the reaction mixture, and 0.5 mL of acetonitrile containing internal standard was added to each. Samples were vortex-mixed and subjected to centrifugation for 5 min at 1430 x g. A 10 μL aliquot of the supernatant was injected onto the LC-MS/MS instrument for qualitative analysis using a temperature-controlled autosampling device operating at 5°C (See Pharmacokinetic section).

[2] = Stability in murine plasma; type: in vitro ADME, mouse; conditions: 10 μM, 1 h at 37°C
Description: as §1

RPN13 = molecular target: T1, RPN13 (Homo sapiens, UniProt Q16186); assay: Up284B competition labelling in ES2 and SKOV3 cell lysate; type: binding; conditions: titrated RA475, bortezomib 1 μM, Up284B 5 μM
T1 construct: performed the labeling assay after treating ovarian cancer cell lysates (ES2 and SKOV3) in the presence of titrated doses of RA475; endogenous in cells; host or cells: ES2 and SKOV3 ovarian cancer cell lysates
T1 sequence (Q16186 whole entry): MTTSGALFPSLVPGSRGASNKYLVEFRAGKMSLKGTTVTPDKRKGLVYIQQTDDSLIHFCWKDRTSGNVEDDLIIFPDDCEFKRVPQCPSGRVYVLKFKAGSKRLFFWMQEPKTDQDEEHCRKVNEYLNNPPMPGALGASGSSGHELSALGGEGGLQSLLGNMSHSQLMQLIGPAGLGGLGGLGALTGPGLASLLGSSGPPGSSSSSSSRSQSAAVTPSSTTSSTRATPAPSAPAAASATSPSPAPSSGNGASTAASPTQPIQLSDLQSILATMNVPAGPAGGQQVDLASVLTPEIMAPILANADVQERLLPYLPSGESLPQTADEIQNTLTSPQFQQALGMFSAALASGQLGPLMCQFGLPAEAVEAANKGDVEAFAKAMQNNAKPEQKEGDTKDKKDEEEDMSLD
Description: Clarified cell lysate in MPER buffer (Pierce) was pretreated with streptavidin-coated magnetic beads for 45 min at 4°C to deplete non-specific biotinylated proteins in the cell lysate. […] Next, the samples were mixed with Laemmli sample buffer (BioRad) and boiled for 5 min. The proteins were separated using a 4–15% Bio-Rad Mini-PROTEAN SDS-PAGE gel (1 h at 100 V), and transferred to PVDF membrane overnight at 4°C (24 V). The membrane was blocked with 5% (w/v) BSA in phosphate buffered saline containing 0.1% (v/v) Tween 20 (PBST) for 1 h at RT, and washed for 20 min (3X with PBST). Then the membrane was probed with HRP-streptavidin (1:10,000 in PBST) for 1 h at RT, washed for 30 min (3X with PBST), and developed using HyGLO chemiluminescent detection reagent (Denville) and visualized using a Biorad Chemidoc imager.
Fig 2 RA475 binds to RPN13 and induces rapid apoptosis. […] C, D) RA475 competition labelling experiment. C) ES2 D) SKOV3 clarified cell lysate (40 μg/sample) in MPER buffer was pretreated with streptavidin-coated magnetic beads for 45 min at 4°C to deplete non-specific biotinylated proteins in the cell lysate. […] Next, the samples were mixed with Laemmli sample buffer (BioRad) and boiled for 5 min. The proteins were separated using a 4–15% Bio-Rad Mini-PROTEAN SDS-PAGE gel (1 h at 100 V), and transferred to PVDF membrane overnight at 4°C (24 V). […]

Compound: Cl.Cl.N#Cc1ccc(/C=C2/C(=O)/C(=C/c3ccc(C#N)cc3)C23CCN(C(=N)N)CC3)cc1 [RA475, 1,3-bis((E)-4-cyanobenzylidene)-2-oxo-7-azaspiro[3.5]nonane-7-carboximidamide dihydrochloride]
- degradation in liver microsomes [1]: < 10%
- stability in plasma [2]: did not degrade
- competition with Up284B for binding to RPN13 (RPN13): efficiently competes

Reference: publication PMC11239005, “Preclinical studies of RA475, a guanidine-substituted spirocyclic candidate RPN13/ADRM1 inhibitor for treatment of ovarian cancer” (PLOS ONE, 2024)
